Key:
[1] = Foam stability of polidocanol with single molecular weight (Tessari method); type: physicochemical; details: for Foam coalescence time / Foam drainage time: 1% solution in 4% solution of ethanol in PBS, Tessari method, gas-to-liquid ratio 3:1; for foam formed after thorough mixing with air: 1% solutions mixed with air at a volume ratio of 1:3
Protocol: Samples of polidocanol with a single molecular weight (DD-PEG8-OH, DD-PEG9-OH, and DD-PEG10-OH prepared in Example 1) and a control (polidocanol in a mixture state containing different molecular weights, purchased from Siegfried Hameln GmbH, Germany, batch number OK13103) were separately weighed and prepared into 1% solutions using a 4% solution of ethanol in PBS. The polidocanol was foamed using the Tessari method, i.e., two 2.5 mL syringes were connected via a three-way tube and rapidly pushed and pulled back and forth at a gas-to-liquid ratio of 3:1 until foam formed. All foam was collected into one syringe, the volume was brought to 2 mL, and the foam state was observed while standing. The following parameters were recorded: foam drainage time, foam halflife time, and foam coalescence time.

[2] = system: rabbit marginal ear vein; assay: Venous sclerosing effect in the rabbit marginal ear vein model; type: in vivo; details: maximum volume 0.25 mL, calculated on number of rabbit ears
Protocol: The rabbit marginal ear vein was used as an experimental model to compare the effects of adding different concentrations of sodium hyaluronate on the venous sclerosing effect of polidocanol. The specific method was as follows: (1) Domestic rabbits were anesthetized with xylazine (2-5 mg/kg, intramuscular injection). Subsequently, the hair on the ears was shaved, and the area was disinfected using a 0.5% chlorhexidine alcohol solution. (2) The Tessari method was used to foam the polidocanol with the addition of sodium hyaluronate, i.e., two 10 mL syringes were connected via a three-way tube and rapidly pushed and pulled back and forth at a certain gas-to-liquid ratio until foam was formed. (3) A disposable syringe was used to puncture the marginal vein, and the sclerosant was injected slowly, with a maximum volume of 0.25 mL. […]
In this example, 14 days after the injection of different types of polidocanol into some rabbit marginal ear veins, some blood vessels were occluded. […] All rabbit ear blood vessels were scored, with effective ones recorded as 1 and ineffective ones recorded as 0.
The calculation rule for the effective rate was as follows: effective rate = score of rabbit ears/total number of rabbit ears × 100% (calculated based on the number of rabbit ears).
All rabbit ear blood vessels were scored, with effective ones recorded as 1 and ineffective ones recorded as 0. […]

Foam coalescence time [1]	Foam drainage time [1]	Foam coalescence time ([1]; listed as P8 (1%))	foam formed after thorough mixing with air [1]	Foam coalescence time ([1]; listed as P10 (1%))	SMILES	D14 effective rate (%) ([2]; venous sclerosis 14 days after injection of foam into rabbit marginal ear veins)	D21 effective rate (%) ([2]; venous sclerosis 21 days after injection of foam into rabbit marginal ear veins)
13 min	3 s	13 m	formed homogeneous foam		CCCCCCCCCCCCOCCOCCOCCOCCOCCOCCOCCOCCO [P8]		
					CCCCCCCCCCCCOCCOCCOCCOCCOCCOCCOCCOCCOCCO [P9]	91.67%	83.33%
20 min	8 s		formed homogeneous foam	20 m	CCCCCCCCCCCCOCCOCCOCCOCCOCCOCCOCCOCCOCCOCCO [P10]		
